Marks after values point to notes of the source that are not given here.
Test system: BALB/c normal liver (BNL) cells
Test: Hydrogen peroxide cytotoxicity assay in BNL cells
Assay type: cell-based, BALB/c mouse
Settings: then H2O2 2 hours, control 0.69
Method: BALB/c normal liver (BNL) cells were purchased from Bioresources Collection and Research Center (Hsinchu, Taiwan). Cell lines were grown in DMEM (Dulbecco's modified Eagle's medium) with 50 IU/mL penicillin, 50 μg/mL streptomycin, 50 IU/mL amphotericin B and 10% fetal bovine serum. For cytotoxicity assays, cells (5×10^3 cells/well) were plated into 96-well culture plates and allowed to attach overnight. The medium was replaced with fresh medium (as control) or with various concentrations of AFEW, AFEW-1 or kinsenoside for 16 hours. The cells were then washed with PBS and further treated with various doses of hydrogen peroxide (0.125-4.00 μM) for 2 hours. After H2O2 cytotoxic treatment, the percentage of viable cells was determined using a CellTiter 96 Aqueous Non-Radioactive Cell Proliferation Assay kit (Promega, Madison, Wis., USA). Reagent solution (20 μt) was added to each well and incubated at 37° C. in humidified 5% CO2 for 1 hour. Then, the absorbance was measured at 490 nm using a 96-well plate reader (Multiskan Spectrum, Labsystem, Thermo Electron Corporation, Finland).
Data from in vivo experiments were treated by one-way analysis of variance and Dunnett's test was applied. The significance level was set at p[…]00.05. […]

O=C1C[C@@H](OC2OC(CO)C(O)C(O)C2O)CO1 (stereo partly drawn) [Kinsenoside, 3-(R)-3-β-D-glucopyranosyloxybutanolide]
H2O2 LD50 (95% confidence limits) (pretreatment 20 μg/mL for 16 hours): 0.81 (0.74-0.88)^a μM
H2O2 LD50 (95% confidence limits) (pretreatment 40 μg/mL for 16 hours): 1.17 (1.01-1.36)^a μM

From patent US9072770B2, “Aqueous extracts of Anoectochilus spp. kinsenoside and pharmaceutical compositions useful for hepatoprotection” (CHINA MEDICAL UNIVERSITY, priority 2007, dated 2015)
